Assay [1] concerns HepG2 cells. Nature of the assay: Transfection of HepG2 cells with GpLuc mRNA, luminescence of supernatant (Example 3). Format: cell-based. To be noted: small amounts of lipidoid added to PB83, GpLuc mRNA, 24 h post transfection. Here is the method:
For luminescence analysis, a volume of 10 μL supernatant was transferred to a 96 well plate for GpLuc measurement. Then, coelenterazine working solution (100 μM) was prepared (1 mL coelenterazine stock solution (4.72 mM in EtOH) in 49 mL phosphate buffered saline supplemented with 5 mM NaCl, pH 7.2). A volume of 100 μL coelenterazine working solution was used as a substrate for GpLuc and measured after 5 seconds in a commercially available microplate reader.
The experiments were conducted as described in the previous Example, except that HepG2 cells were transfected instead of Sol8 cells. A volume of 0.2 mL HepG2 cells (10.000 cells) were seeded in a 96 well tissue culture plate. After removing the medium from each well, 100 μL RPMI 1640 medium (with 1% Penicillin and 1% Streptomycin, 1% L-Glutamin) was added to each well. Afterwards, HepG2 cells were transfected with 100 μL transfection mix (in triplicates) of polymer-lipidoid mRNA complexes and respective controls (in triplicates), and cells were incubated at 37° C. and 5% CO2 for 90 minutes. After incubation, 150 μL medium was exchanged with 150 μL fresh RPMI 1640 medium supplemented with 10% fetal calf serum. Twenty-four hours post transfection, 10 μL of supernatant of each well was extracted and used for further luminescence analysis.

For assay [2], the system named is differentiated Sol8 cells. Briefly: Transfection of Sol8 muscle cells with GpLuc mRNA, luminescence of supernatant (Example 2). Format: cell-based, C3H mouse. To be noted: small amounts of lipidoid added to PB83, GpLuc mRNA (SEQ ID NO: 12), 24 h post transfection. Here is the method: Sol8 is a myogenic cell line isolated by Daubas et al. from primary cultures of soleus muscle taken from the leg of a normal C3H mouse. A volume of 0.2 mL Sol8 cells (20.000 cells) were seeded in 96 well glass bottom plates (Softwell Hydrogel coated with collagen, elasticity E=12 kPa) on day 1. After removing the medium from each well, 100 μL DMEM medium (with 2% horse serum) was added to each well. Afterwards, on day 2, Sol8 cells were transfected with 100 μL transfection mix (in triplicates) of polymer-lipidoid complexes prepared according to Example 1) and respective controls (in triplicates), and cells were incubated at 37° C. and 5% CO2 for 120 minutes. After incubation, 150 μL medium was exchanged with 150 μL fresh DMEM medium supplemented with 10% fetal calf serum. Twenty-four hours post transfection, i.e. on day 3, 10 μL of supernatant of each well was extracted and used for further luminescence analysis, which was performed as described below. […]
For luminescence analysis, a volume of 10 μL supernatant was transferred to a 96 well plate for GpLuc measurement. […] A volume of 100 μL coelenterazine working solution was used as a substrate for GpLuc and measured after 5 seconds in a commercially available microplate reader.

`CCCCCCCCCCC(O)C[N+](C)(C)CCN(CC[N+](C)(C)CC(O)CCCCCCCCCC)CC[N+](C)(C)CC(O)CCCCCCCCCC` (centres unmarked) [3-C12-OH-cat]: the “transfection efficiency (GpLuc luminescence)” value (“transfection efficiency” below) in assay [1] is recorded as “profound increase of transfection efficiency”. Take `CCCCCCCCCCC(O)CNCCN(CCNCC(O)CCCCCCCCCC)CCNCC(O)CCCCCCCCCC` (centres unmarked) [3-C12-OH]: the “transfection efficiency” value in assay [2] and in assay [1] was “profound increase of transfection efficiency” throughout.

As to `CCCCCCCCCCCCNCCN(CCNCCCCCCCCCCCC)CCNCCCCCCCCCCCC` [3-C12], the “transfection efficiency” value in assay [2] and in assay [1] was “profound increase of transfection efficiency” in each case.

The record behind these values is patent publication US11478552B2, “Hybrid carriers for nucleic acid cargo” (CureVac AG, priority 2016, dated 2022).
